Experimental data taken from patent US12473262B2, “Aryl hydrocarbon receptor activators” (Oregon State University, priority 2019, dated 2025).
Read-outs that look alike come from different tables or passages of the source.

What was measured:
[1] = molecular target: aryl hydrocarbon receptor (AhR) (Mus musculus (Mouse), UniProt P30561); assay: AhR ligand screening: AhRE-luciferase reporter in transfected Hepa1 cells; type: cell-based; details: for Fold @ 1 nM: fold change of luciferase expression at 1 nM test compound relative to vehicle (0.1% DMSO); for Fold @ 100 nM: fold change of luciferase expression at 100 nM test compound relative to vehicle (0.1% DMSO); for Fold @ 10 uM: fold change of luciferase expression at 10 uM test compound relative to vehicle (0.1% DMSO); for Fold relative to benchmark @ 100 nM: luciferase expression at 100 nM test compound relative to 100 nM benchmark compound 11-cl-BBQ
Chain of aryl hydrocarbon receptor (AhR) (P30561 10-805): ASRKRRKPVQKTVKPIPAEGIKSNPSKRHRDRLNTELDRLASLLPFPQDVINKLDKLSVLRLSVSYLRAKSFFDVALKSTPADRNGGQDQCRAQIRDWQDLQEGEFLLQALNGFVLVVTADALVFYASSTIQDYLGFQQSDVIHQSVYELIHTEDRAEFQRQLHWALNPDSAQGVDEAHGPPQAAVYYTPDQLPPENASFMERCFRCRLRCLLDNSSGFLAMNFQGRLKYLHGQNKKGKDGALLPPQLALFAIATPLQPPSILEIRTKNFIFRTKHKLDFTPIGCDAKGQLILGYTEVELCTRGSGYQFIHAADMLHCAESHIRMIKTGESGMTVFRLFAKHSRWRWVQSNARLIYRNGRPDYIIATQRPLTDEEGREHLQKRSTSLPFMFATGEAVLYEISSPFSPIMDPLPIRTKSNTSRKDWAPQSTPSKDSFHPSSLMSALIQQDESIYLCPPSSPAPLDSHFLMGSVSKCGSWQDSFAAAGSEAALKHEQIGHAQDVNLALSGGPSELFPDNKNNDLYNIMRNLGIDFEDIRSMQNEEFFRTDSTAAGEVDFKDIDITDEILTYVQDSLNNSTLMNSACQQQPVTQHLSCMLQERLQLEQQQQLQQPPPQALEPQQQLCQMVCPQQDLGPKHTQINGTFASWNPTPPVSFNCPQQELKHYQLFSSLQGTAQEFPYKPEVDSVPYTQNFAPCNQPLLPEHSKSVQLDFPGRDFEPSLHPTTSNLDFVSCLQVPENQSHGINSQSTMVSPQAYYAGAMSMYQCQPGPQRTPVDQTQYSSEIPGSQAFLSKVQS
Chain of aryl hydrocarbon receptor (AhR) (P53762 whole entry partner): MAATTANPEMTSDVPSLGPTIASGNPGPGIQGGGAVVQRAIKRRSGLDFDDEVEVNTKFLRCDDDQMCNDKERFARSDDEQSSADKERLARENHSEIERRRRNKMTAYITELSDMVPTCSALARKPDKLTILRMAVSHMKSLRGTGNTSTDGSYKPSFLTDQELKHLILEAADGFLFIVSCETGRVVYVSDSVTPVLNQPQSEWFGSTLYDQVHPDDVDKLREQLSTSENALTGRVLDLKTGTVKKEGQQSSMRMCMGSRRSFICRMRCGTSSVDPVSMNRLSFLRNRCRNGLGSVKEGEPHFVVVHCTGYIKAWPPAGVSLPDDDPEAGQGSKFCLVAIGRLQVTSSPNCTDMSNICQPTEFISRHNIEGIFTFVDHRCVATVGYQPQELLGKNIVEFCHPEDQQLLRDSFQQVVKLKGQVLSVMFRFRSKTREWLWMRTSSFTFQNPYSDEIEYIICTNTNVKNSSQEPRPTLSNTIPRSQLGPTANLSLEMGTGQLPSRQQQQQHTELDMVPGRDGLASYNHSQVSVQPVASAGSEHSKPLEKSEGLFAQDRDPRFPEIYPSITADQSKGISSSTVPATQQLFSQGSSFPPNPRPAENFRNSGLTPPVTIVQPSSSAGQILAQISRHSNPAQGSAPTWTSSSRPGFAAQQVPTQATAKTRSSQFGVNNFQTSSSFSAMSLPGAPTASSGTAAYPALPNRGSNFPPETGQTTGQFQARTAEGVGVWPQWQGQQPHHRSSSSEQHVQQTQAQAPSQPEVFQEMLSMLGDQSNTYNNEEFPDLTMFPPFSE
Outline: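 Values are fold luciferase induction relative to vehicle (0.1% DMSO), read by luminometry of lysates from Hepa1 cells carrying an AhRE-driven luciferase reporter. Cells were seeded at 1×10^4 per well, grown overnight and treated with compound before lysis.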

CYP-1A2 = CYP-1A2 (Homo sapiens (Human), UniProt P05177); assay: CYP panel profile: P450 inhibition, CYP-1A2; type: in vitro ADME; details: human liver microsomes; read-out: CYP-1A2 IC50
Chain of CYP-1A2 (P05177 whole entry): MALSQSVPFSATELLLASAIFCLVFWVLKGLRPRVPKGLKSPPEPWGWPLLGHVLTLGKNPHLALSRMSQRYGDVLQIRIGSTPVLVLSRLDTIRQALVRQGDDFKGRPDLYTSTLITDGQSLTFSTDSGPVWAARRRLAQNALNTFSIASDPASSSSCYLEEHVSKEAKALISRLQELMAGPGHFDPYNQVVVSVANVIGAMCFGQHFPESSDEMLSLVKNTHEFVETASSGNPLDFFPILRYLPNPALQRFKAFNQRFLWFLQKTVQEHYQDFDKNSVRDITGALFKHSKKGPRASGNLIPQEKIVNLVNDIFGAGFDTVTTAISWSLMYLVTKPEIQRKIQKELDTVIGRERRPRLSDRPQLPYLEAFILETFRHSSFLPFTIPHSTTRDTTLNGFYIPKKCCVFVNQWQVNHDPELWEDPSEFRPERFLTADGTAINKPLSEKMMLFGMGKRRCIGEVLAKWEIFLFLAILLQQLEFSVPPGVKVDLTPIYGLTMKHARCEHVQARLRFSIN
Method: (§1) 5. CYP Panel Profile: P450 Inhibition
(§2) From 10 mM stock solutions of test compounds, a dilution plate was prepared diluting serially starting from 5 mM up to 2 μM in Acetonitrile/DMSO or Methanol/DMSO Human liver Microsomes were added at required concentration as per specific CYP isoform in a deep well assay plate (1A2, 2C9, 2D6, 2B6, 2C8, 2C19, and 3A4). Compounds were spiked in all wells from dilution plate at final concentrations starting from 50 μM up to 0.02 μM, except for positive and negative control. Specific substrate were added to all wells and reactions were pre-incubated for 10 min. To start reactions, NADPH was added to all wells at 1 mM final concentration. Assay plate was mixed by vortexing and incubated at 37° C. for […] for 3A4.20 min for (1A2, 2C9, 2B6, 2C8, 2D6) and […] for 2C19. A quencher with chilled acetonitrile suitable internal standard was added. Samples were centrifuged and supernatants were collected and subjected to LC-MS/MS analysis for determination.

CYP-2C9 = CYP-2C9 (Homo sapiens (Human), UniProt P11712); assay: CYP panel profile: P450 inhibition, CYP-2C9; type: in vitro ADME; details: human liver microsomes
Chain of CYP-2C9 (P11712 whole entry): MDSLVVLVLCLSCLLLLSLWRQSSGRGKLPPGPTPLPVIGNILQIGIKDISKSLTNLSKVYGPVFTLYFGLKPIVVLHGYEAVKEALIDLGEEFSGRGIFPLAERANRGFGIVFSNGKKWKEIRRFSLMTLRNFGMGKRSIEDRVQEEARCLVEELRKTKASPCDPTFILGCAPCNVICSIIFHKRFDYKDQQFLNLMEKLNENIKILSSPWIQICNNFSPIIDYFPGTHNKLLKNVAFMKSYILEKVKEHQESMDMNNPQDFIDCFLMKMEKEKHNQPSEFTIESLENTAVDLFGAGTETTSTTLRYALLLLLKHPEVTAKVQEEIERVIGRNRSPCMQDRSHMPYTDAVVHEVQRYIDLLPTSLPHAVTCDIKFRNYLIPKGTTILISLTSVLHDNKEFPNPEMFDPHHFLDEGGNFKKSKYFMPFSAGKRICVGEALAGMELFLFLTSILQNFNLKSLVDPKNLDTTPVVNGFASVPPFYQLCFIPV
Method: as §1, §2

CYP-2D6 = CYP-2D6 (Homo sapiens (Human), UniProt P10635); assay: CYP panel profile: P450 inhibition, CYP-2D6; type: in vitro ADME; details: human liver microsomes
Method: as §1, §2

CYP-2B6 = CYP-2B6 (Homo sapiens (Human), UniProt P20813); assay: CYP panel profile: P450 inhibition, CYP-2B6; type: in vitro ADME; details: human liver microsomes
Chain of CYP-2B6 (P20813 whole entry): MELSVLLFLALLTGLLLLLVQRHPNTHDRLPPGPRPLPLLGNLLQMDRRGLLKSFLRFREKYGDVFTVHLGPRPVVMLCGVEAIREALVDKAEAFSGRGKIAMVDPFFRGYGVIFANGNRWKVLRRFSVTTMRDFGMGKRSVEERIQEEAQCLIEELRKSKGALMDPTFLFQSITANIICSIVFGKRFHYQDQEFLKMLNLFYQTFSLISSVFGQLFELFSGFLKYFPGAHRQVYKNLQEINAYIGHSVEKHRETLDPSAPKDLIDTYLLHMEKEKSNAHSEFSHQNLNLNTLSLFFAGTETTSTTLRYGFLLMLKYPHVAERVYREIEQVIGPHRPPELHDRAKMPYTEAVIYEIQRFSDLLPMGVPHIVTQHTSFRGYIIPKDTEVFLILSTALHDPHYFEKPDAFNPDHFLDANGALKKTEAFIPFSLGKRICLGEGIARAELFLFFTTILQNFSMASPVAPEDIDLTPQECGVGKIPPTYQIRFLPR
Method: as §1, §2

CYP-2C8 = CYP-2C8 (Homo sapiens (Human), UniProt P10632); assay: CYP panel profile: P450 inhibition, CYP-2C8; type: in vitro ADME; details: human liver microsomes
Chain of CYP-2C8 (P10632 whole entry): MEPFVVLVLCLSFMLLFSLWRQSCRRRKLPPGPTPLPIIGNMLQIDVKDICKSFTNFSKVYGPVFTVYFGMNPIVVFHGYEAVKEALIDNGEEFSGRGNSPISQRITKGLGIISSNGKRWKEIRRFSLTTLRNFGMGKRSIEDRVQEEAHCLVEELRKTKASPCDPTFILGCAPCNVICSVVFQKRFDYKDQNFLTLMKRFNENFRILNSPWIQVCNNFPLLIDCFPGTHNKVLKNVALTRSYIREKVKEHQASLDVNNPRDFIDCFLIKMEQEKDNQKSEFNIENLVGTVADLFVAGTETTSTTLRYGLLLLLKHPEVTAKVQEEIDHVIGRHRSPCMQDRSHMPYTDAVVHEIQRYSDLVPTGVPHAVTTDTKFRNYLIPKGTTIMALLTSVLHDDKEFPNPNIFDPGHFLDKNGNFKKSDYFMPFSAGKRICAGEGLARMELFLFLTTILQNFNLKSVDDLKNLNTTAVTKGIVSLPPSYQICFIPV
Method: as §1, §2

CYP-2C19 = CYP-2C19 (Homo sapiens (Human), UniProt P33261); assay: CYP panel profile: P450 inhibition, CYP-2C19; type: in vitro ADME; details: human liver microsomes
Chain of CYP-2C19 (P33261 whole entry): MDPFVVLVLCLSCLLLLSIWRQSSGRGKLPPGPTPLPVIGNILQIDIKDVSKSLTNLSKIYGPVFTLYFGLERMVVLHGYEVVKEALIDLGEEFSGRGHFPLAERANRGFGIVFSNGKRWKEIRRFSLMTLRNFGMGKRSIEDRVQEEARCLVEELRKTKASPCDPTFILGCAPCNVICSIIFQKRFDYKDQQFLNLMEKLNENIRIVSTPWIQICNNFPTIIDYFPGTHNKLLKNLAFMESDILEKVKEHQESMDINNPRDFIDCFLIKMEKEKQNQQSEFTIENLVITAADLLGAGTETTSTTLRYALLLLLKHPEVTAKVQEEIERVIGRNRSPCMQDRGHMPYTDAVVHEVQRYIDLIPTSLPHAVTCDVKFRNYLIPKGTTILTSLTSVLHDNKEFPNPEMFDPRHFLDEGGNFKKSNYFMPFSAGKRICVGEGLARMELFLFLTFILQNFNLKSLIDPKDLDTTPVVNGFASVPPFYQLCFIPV
Method: as §1, §2

CYP-3A4 = CYP-3A4 (Homo sapiens (Human), UniProt P08684); assay: CYP panel profile: P450 inhibition, CYP-3A4; type: in vitro ADME; details: human liver microsomes
Chain of CYP-3A4 (P08684 whole entry): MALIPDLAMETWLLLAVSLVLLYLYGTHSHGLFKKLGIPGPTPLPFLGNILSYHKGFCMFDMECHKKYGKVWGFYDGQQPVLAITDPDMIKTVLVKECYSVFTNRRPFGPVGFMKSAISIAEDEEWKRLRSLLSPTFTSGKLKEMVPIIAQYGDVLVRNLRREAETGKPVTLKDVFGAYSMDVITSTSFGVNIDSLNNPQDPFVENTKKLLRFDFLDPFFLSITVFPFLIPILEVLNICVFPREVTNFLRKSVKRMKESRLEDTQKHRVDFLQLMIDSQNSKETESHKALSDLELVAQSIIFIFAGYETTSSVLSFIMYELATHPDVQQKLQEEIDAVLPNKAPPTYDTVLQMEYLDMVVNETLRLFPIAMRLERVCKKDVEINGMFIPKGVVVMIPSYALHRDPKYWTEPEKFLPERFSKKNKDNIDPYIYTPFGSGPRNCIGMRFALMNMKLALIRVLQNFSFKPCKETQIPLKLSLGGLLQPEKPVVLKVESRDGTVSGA
Method: as §1, §2

[2] = In vivo PK study, intravenous and oral administration in male mice; design: species or system mouse; details: plasma; for C0: read-out: C0_Cmax
Method: In Vivo PK Study Pharmacokinetics of Exemplary Compounds 362 and 893 Following an Intravenous and Oral Administration in Male C57BL/6J Mice.
Male C57BL/6J mice, approximately 8-10 weeks old, were obtained from the vivarium of Fundación Ciencia & Vida Chile (Santiago, Chile). Dosing solution of Compound 362 for PO administration was formulated in a vehicle containing 40% DMSO, 20% Kolliphor EL, 40% Propylene Glycol at 0.8 mg/mL. Dosing solution of Compound 362 for IV administration was formulated in a vehicle containing 30% DMSO, 20% Kolliphor EL, 50% PBS at […].
Male […] mice, approximately 8-11 weeks old, 22-27 grams were obtained from the vivarium Fundación Ciencia & Vida Chile (Santiago, Chile). Animals were acclimated for a minimum period of 4 days upon arrival at the testing facility. Animals were weighed, identified by marking the tail with numbers using a non-toxic permanent marker and designated into the following treatment groups on the day of dosing:
Group 1 animals received an IV administration via caudal vein of 2 mg/kg PRXS0362 dosing solution.
Group 2 animals received a PO administration via feeding tubes (20 gauge) of 8 mg/kg PRXS0362 dosing solution.
Terminal whole blood was collected via cardiac puncture for group 1 at the following time points: 5, 10, 15, 30, 60, 120, 240, 360, and 480 minutes. Non-dosed mice were used to collect samples of zero time points. For the group 2 at the following time point: 15, 30, 60, 120, 240, 360, and 480 minutes.
Whole blood, approximately 300 μL per time point, was collected into microtainer tubes with EDTA (K2). Blood samples were centrifuged immediately at approximately 9,000 G at 4° C. for 5 minutes and plasma separated. Plasma samples were placed into individually labeled tubes and stored in a −80° C. freezer prior to LC/MS/MS analysis.
The whole brain was collected at each point only for both groups, for this the animals were euthanized with CO2, decapitated, the brain was extracted weighed, frozen in liquid nitrogen and stored at −80° C. prior to LC/MS/MS analysis.
Compound 893 was tested by the same protocol as above.

[3] = Liver microsomal stability, rat
Method: The assessment of metabolic stability of testing compounds was performed using human, mouse, rat, dog and monkey liver microsomes (20 mg protein/ml). Each reaction mixture contained 42.5 μL of 0.1 M potassium phosphate buffer pH 7.4, containing respective LM protein (final concentration 0.5 mg/ml). 2.5 μL of the compound stock solution was added in it (1 μM final concentration). The reaction was initiated by the addition of 5 μL NADPH solution (final Concentration 1 mM). At different time points (0, 5, 15, and 30 minutes), samples were quenched with 200 μL of cold acetonitrile containing ISTD Propranolol. Samples were centrifuged at 3500 rpm for 20 mM at 4° C. Supernatant was subjected to LC-MS/MS analysis for quantification. Verapamil was used as a positive control.

[4] = Liver microsomal stability, mouse
[5] = mouse, liver microsomes, pH 7.4

O=C(C1CCCCC1)n1c(-c2cccc3ccccc23)nc2ccc(Cl)cc21 [Compound 640]
Fold @ 1 nM [1]: 1 fold
Fold @ 100 nM [1]: 10 fold
Fold @ 10 uM [1]: 15 fold
Fold relative to benchmark @ 100 nM [1]: 1.21 fold
IC50 (CYP-1A2): 0.6 µM
IC50 (CYP-2C9): 4.5 µM
IC50 (CYP-2D6): 29 µM
IC50 (CYP-2B6): 31.1 µM
IC50 (CYP-2C8): 2.3 µM
IC50 (CYP-2C19): 2.4 µM
IC50 (CYP-3A4): 3.8 µM

O=C(c1ccc(F)c(F)c1)n1c(-c2cccc3ccccc23)nc2cc(Cl)ccc21 [Compound 530]
Fold @ 1 nM [1]: 2 fold
Fold @ 100 nM [1]: 39 fold
Fold @ 10 uM [1]: 56 fold
Fold relative to benchmark @ 100 nM [1]: 0.98 fold
IC50 (CYP-1A2): 0.5 µM
IC50 (CYP-2C9): 5 µM
IC50 (CYP-2D6): > 50 µM
IC50 (CYP-2B6): 9.4 µM
IC50 (CYP-2C8): 9.4 µM
IC50 (CYP-2C19): 3.4 µM
IC50 (CYP-3A4): 3.7 µM

COC(=O)c1ccc2nc(-c3cccc4ccccc34)n(C(=O)c3ccc(F)c(F)c3)c2c1 [Compound 849]
Fold @ 1 nM [1]: 1 fold
Fold @ 100 nM [1]: 1 fold
Fold @ 10 uM [1]: 1 fold
Fold relative to benchmark @ 100 nM [1]: 0.04 fold
IC50 (CYP-1A2): 15.1 µM
IC50 (CYP-2C9): 7.7 µM
IC50 (CYP-2D6): 19.3 µM
IC50 (CYP-2B6): > 48 µM
IC50 (CYP-2C8): 4.1 µM
IC50 (CYP-2C19): 1.5 µM
IC50 (CYP-3A4): > 50 µM

O=c1c2cccc3cccc(c32)c2nc3cc(Cl)ccc3n12 [Compound 362, 6-chloro-3,10-diazapentacyclo[10.7.1.0^2,10.0^4,9.0^16,20]icosa-1(19),2,4(9),5,7,12,14,16(20),17-nonaen-11-one]
Fold @ 1 nM [1]: 16 fold
Fold @ 100 nM [1]: 22 fold
Fold relative to benchmark @ 100 nM [1]: 1 fold
CL_CL/F ([2]; IV 2 mg/Kg): 4.418 L/[Kg*h]
Vd_Vd/F ([2]; IV 2 mg/Kg): 5.67 L/kg
thalf ([2]; IV 2 mg/Kg): 0.889 h
CL_CL/F ([2]; PO 8 mg/Kg): 7.86 L/[Kg*h]
Vd_Vd/F ([2]; PO 8 mg/Kg): 8.314 L/kg
thalf ([2]; PO 8 mg/Kg): 0.733 h
AUC(0-inf) ([2]; mouse, IV 2 mg/Kg): 453 ng·h/mL
AUC(0-t) ([2]; mouse, IV 2 mg/Kg): 451 ng·h/mL
MRT ([2]; mouse, IV 2 mg/Kg): 52.3 min
C0 ([2]; mouse, IV 2 mg/Kg): 215 ng/mL
bioavailability ([2]; mouse, PO 8 mg/Kg vs IV 2 mg/Kg): 56.2%
AUC(0-inf) ([2]; mouse, PO 8 mg/Kg): 1020 ng·h/mL
AUC(0-t) ([2]; mouse, PO 8 mg/Kg): 1020 ng·h/mL
MRT ([2]; mouse, PO 8 mg/Kg): 98 min
Tmax ([2]; mouse, PO 8 mg/Kg): 60 min
C0 ([2]; mouse, PO 8 mg/Kg): 427 ng/mL
Rem @ RLM × 30 min ([3]; rat liver microsomes, 30 min, 1 μM compound, 0.5 mg/ml protein): 14.5%
half-life at 1 μM ([3]; rat, liver microsomes, pH 7.4): 11.4 min
microsomal CLint at 1 μM ([3]; rat, liver microsomes, pH 7.4): 121 µL/min/mg
Rem @ MLM × 30 min ([4]; mouse liver microsomes, 30 min, 1 μM compound, 0.5 mg/ml protein): 12.0%
half-life at 1 μM [4, 5]: 9.8 min
microsomal CLint at 1 μM [4, 5]: 141 µL/min/mg

COc1ccc(C(=O)n2c(-c3cccc4ccccc34)nc3cc(Cl)ccc32)cc1 [Compound 535, (5-chloro-2-(naphthalen-1-yl)-1H-benzo[d]imidazol-1-yl)(4-methoxyphenyl)methanone]
Fold @ 1 nM [1]: 1 fold
Fold @ 100 nM [1]: 38 fold
Fold @ 10 uM [1]: 44 fold
Fold relative to benchmark @ 100 nM [1]: 0.95 fold
IC50 (CYP-1A2): 3.9 µM
IC50 (CYP-2C9): 2.5 µM
IC50 (CYP-2D6): > 50 µM
IC50 (CYP-2B6): 21.5 µM
IC50 (CYP-2C8): 21.8 µM
IC50 (CYP-2C19): 2.1 µM
IC50 (CYP-3A4): 0.2 µM

O=C(c1ccccc1)n1c(-c2cccc3ccccc23)nc2cc(Cl)ccc21 [Compound 494]
Fold @ 1 nM [1]: 1 fold
Fold @ 100 nM [1]: 29 fold
Fold @ 10 uM [1]: 43 fold
Fold relative to benchmark @ 100 nM [1]: 0.94 fold
IC50 (CYP-1A2): 0.7 µM
IC50 (CYP-2C9): 4.2 µM
IC50 (CYP-2D6): > 50 µM
IC50 (CYP-2B6): > 45 µM
IC50 (CYP-2C8): 2.5 µM
IC50 (CYP-2C19): 5.2 µM
IC50 (CYP-3A4): 1.2 µM

O=C(c1c(F)cc(Br)cc1F)n1c(-c2cccc3ccccc23)nc2cc(Cl)ccc21 [Compound 638]
Fold @ 1 nM [1]: 1 fold
Fold @ 100 nM [1]: 12 fold
Fold @ 10 uM [1]: 20 fold
Fold relative to benchmark @ 100 nM [1]: 1.17 fold
IC50 (CYP-1A2): 0.3 µM
IC50 (CYP-2C9): 5.2 µM
IC50 (CYP-2D6): 14.5 µM
IC50 (CYP-2B6): 11.6 µM
IC50 (CYP-2C8): 1.8 µM
IC50 (CYP-2C19): 3.4 µM
IC50 (CYP-3A4): 8.1 µM
